{
  "source": "patent US10487291B2",
  "about": "“Detergent or cleaning agent having GLDA-enhanced antimicrobial effect” (Henkel AG & Co. KGaA, priority 2016, dated 2019)",
  "tested_on": "Pseudomonas aeruginosa",
  "assay": "Test for determining the reduction of Pseudomonas aeruginosa according to EN 1276",
  "format": "cell-based",
  "conditions": "for reduction of Pseudomonas aeruginosa (antibacterial effect): EN 1276",
  "method": "The washing agent was used in a test for determining the reduction of Pseudomonas aeruginosa according to EN 1276. The obtained value served as a reference. 0.10 wt. % GLDA or 0.50 wt. % were then added to the washing agent and likewise used in the test for determining the reduction of Pseudomonas aeruginosa according to EN 1276. The all-purpose cleaner was used in a test for determining the reduction of Pseudomonas aeruginosa according to EN 1276. The obtained value served as a reference. 0.10 wt. % GLDA or 0.50 wt. % were then added to the all-purpose cleaner and likewise used in the test for determining the reduction of Pseudomonas aeruginosa according to EN 1276.",
  "data": [
    {"compound": "O=C(O)CC[C@@H](C(=O)O)N(CC(=O)O)CC(=O)O", "note": "[Glutamic acid diacetic acid (GLDA), glutamic acid-N,N-diacetic acid]", "values": [
      {"measurement": "reduction of Pseudomonas aeruginosa (antibacterial effect)", "setting": "Table 1, Example 1, concentration glutamic acid diacetic acid 0.10% (according to the invention)", "result": "7.65E+00"},
      {"measurement": "reduction of Pseudomonas aeruginosa (antibacterial effect)", "setting": "Table 1, Example 1, concentration glutamic acid diacetic acid 0.50% (according to the invention)", "result": "6.90E+01"},
      {"measurement": "reduction of Pseudomonas aeruginosa (antibacterial effect)", "setting": "Table 2, Example 2, concentration glutamic acid diacetic acid 0.10% (according to the invention)", "result": "7.65E+00"},
      {"measurement": "reduction of Pseudomonas aeruginosa (antibacterial effect)", "setting": "Table 2, Example 2, concentration glutamic acid diacetic acid 0.50% (according to the invention)", "result": "6.90E+01"},
      {"measurement": "antimicrobial / antibacterial effect (in words)", "setting": "substance on its own (GLDA itself; agent exclusively comprising QAC)", "result": "does not have an antimicrobial effect"}
    ]}
  ]
}
